Test results published in PubChem BioAssay AID743505 (Broad Institute, 2014).
Activity calls are given as the source filed them.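 Rule for the calls: active = dose curve with falling signal and an AC50 no higher than twice the top valid tested dose; inconclusive = flat curve with 30 to 70% inhibition, or a poor fit; inactive = rising signal, flat weak curve, or AC50 over that limit.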

The molecules below were run against Melanocortin receptor 4 (Homo sapiens) (UniProt P32245) (assay: inhibition of alpha-MSH-driven MC4R cAMP reporter – cell-based, HEK293, luminescence, dry powder, counter-screen for LGR2 antagonist project, dose response (AID 743505)). Details: HEK293 MC4R CRE-luciferase, antagonist mode.
Sequence of Melanocortin receptor 4 (Homo sapiens) (P32245 whole entry, looked up): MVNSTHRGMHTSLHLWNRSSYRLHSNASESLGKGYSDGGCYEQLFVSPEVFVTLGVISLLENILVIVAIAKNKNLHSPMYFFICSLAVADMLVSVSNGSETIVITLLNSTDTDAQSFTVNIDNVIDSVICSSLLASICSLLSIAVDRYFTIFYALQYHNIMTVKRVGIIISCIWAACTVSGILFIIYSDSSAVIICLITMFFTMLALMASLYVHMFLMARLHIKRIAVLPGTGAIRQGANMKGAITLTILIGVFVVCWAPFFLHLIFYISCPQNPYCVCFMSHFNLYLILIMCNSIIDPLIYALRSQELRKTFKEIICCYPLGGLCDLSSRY

| AC50 | Compound |
| --- | --- |
| 7.91 µM | C[C@@H]1CCCCO[C@@H](CN(C)C(=O)Nc2cccc3ccccc23)[C@H](C)CN([C@H](C)CO)C(=O)c2cc(NC(=O)C3CCCCC3)ccc2O1 |
| > 70 µM (inactive) | C[C@@H]1CCCCO[C@@H](CN(C)C(=O)Nc2cccc3ccccc23)[C@H](C)CN([C@@H](C)CO)C(=O)c2cc(NC(=O)C3CCCCC3)ccc2O1 |
| > 70 µM (inactive) | C[C@@H]1CCCCO[C@H](CN(C)C(=O)Nc2cccc3ccccc23)[C@@H](C)CN([C@H](C)CO)C(=O)c2cc(NC(=O)C3CCCCC3)ccc2O1 |
| > 70 µM (inactive) | C[C@H]1CCCCO[C@@H](CN(C)S(=O)(=O)c2ccc(Cl)cc2)[C@@H](C)CN([C@@H](C)CO)C(=O)c2cc(NC(=O)NC3CCCCC3)ccc2O1 |

Same assay, conditions: HEK293 MC4R CRE-luciferase, antagonist mode, at 35 µM (top of the series)

| Compound | activity change, negative = inhibition |
| --- | --- |
| C[C@H](CO)N1C[C@H](C)[C@H](CN(C)C(=O)Nc2cccc(F)c2)OCCCC[C@H](C)Oc2ccc(NC(=O)C3CCCCC3)cc2C1=O | inactive |
| C[C@H](CO)N1C[C@H](C)[C@H](CN(C)C(=O)Nc2ccc(Cl)cc2)OCCCC[C@H](C)Oc2ccc(NC(=O)C3CCCCC3)cc2C1=O | inactive |
| C[C@H](CO)N1C[C@H](C)[C@H](CN(C)C(=O)Nc2ccc(C(F)(F)F)cc2)OCCCC[C@H](C)Oc2ccc(NC(=O)CCC(F)(F)F)cc2C1=O | inactive |
| C[C@H](CO)N1C[C@H](C)[C@H](CN(C)C(=O)Nc2ccc(F)cc2)OCCCC[C@H](C)Oc2ccc(NC(=O)NC3CCCCC3)cc2C1=O | inactive |
| C[C@H](CO)N1C[C@H](C)[C@H](CN(C)C(=O)Nc2ccccc2)OCCCC[C@H](C)Oc2ccc(NC(=O)Nc3ccc4c(c3)OCO4)cc2C1=O | inactive |
| C[C@H](CO)N1C[C@H](C)[C@H](CN(C)C(=O)Nc2ccc3c(c2)OCO3)OCCCC[C@H](C)Oc2ccc(NC(=O)C3CCCCC3)cc2C1=O | inactive |
| C[C@H](CO)N1C[C@H](C)[C@H](CN(C)C(=O)Nc2ccc(F)cc2)OCCCC[C@H](C)Oc2ccc(NC(=O)C3CCOCC3)cc2C1=O | inactive |
| C[C@H](CO)N1C[C@H](C)[C@H](CN(C)C(=O)Nc2ccc(F)cc2)OCCCC[C@H](C)Oc2ccc(NC(=O)Nc3ccccc3)cc2C1=O | inactive |
| C[C@H](CO)N1C[C@H](C)[C@H](CN(C)C(=O)Nc2cccc3ccccc23)OCCCC[C@H](C)Oc2ccc(NC(=O)CCC(F)(F)F)cc2C1=O | inactive |
| COc1ccc(NC(=O)N(C)C[C@@H]2OCCCC[C@H](C)Oc3ccc(NC(=O)NC4CCCCC4)cc3C(=O)N([C@H](C)CO)C[C@@H]2C)cc1 | inactive |
| C[C@H]1CCCCO[C@@H](CN(C)C(=O)Nc2ccc(F)cc2)[C@@H](C)CN([C@@H](C)CO)C(=O)c2cc(NC(=O)C3CCCCC3)ccc2O1 | inactive |
| Cc1ccc(NC(=O)N(C)C[C@@H]2OCCCC[C@H](C)Oc3ccc(NC(=O)C4CCCCC4)cc3C(=O)N([C@H](C)CO)C[C@@H]2C)cc1 | inactive |
| C[C@H](CO)N1C[C@H](C)[C@H](CN(C)C(=O)Nc2ccc(F)cc2)OCCCC[C@H](C)Oc2ccc(NC(=O)C3CC3)cc2C1=O | inactive |
| C[C@H](CO)N1C[C@H](C)[C@H](CN(C)C(=O)Nc2ccc(F)cc2)OCCCC[C@H](C)Oc2ccc(NC(=O)C3CCCCCC3)cc2C1=O | inactive |
| CC(=O)Nc1ccc2c(c1)C(=O)N([C@H](C)CO)C[C@H](C)[C@H](CN(C)C(=O)Nc1ccc(F)cc1)OCCCC[C@H](C)O2 | inactive |
| C[C@H](CO)N1C[C@H](C)[C@H](CN(C)C(=O)Nc2ccc(F)cc2)OCCCC[C@H](C)Oc2ccc(NC(=O)Nc3ccc(F)cc3)cc2C1=O | inactive |
| C[C@H](CO)N1C[C@H](C)[C@H](CN(C)C(=O)Nc2ccccc2)OCCCC[C@H](C)Oc2ccc(NC(=O)CCC(F)(F)F)cc2C1=O | inactive |
| C[C@H]1CCCCO[C@@H](CN(C)C(=O)Nc2ccc(C(F)(F)F)cc2)[C@@H](C)CN([C@@H](C)CO)C(=O)c2cc(NC(=O)CCC(F)(F)F)ccc2O1 | inactive |
| C[C@H](CO)N1C[C@H](C)[C@H](CN(C)C(=O)Nc2ccccc2)OCCCC[C@H](C)Oc2ccc(NC(=O)Nc3ccccc3)cc2C1=O | inactive |
| C[C@H](CO)N1C[C@H](C)[C@H](CN(C)C(=O)Nc2ccccc2)OCCCC[C@H](C)Oc2ccc(NC(=O)NC3CCCCC3)cc2C1=O | inactive |
| C[C@H](CO)N1C[C@H](C)[C@H](CN(C)C(=O)Nc2ccc(F)cc2)OCCCC[C@H](C)Oc2ccc(NC(=O)C3CCCC3)cc2C1=O | inactive |
| COc1ccc(S(=O)(=O)N(C)C[C@@H]2OCCCC[C@H](C)Oc3ccc(NS(=O)(=O)c4ccc(F)cc4)cc3C(=O)N([C@@H](C)CO)C[C@@H]2C)cc1 | inactive |
| COc1ccc(NC(=O)N(C)C[C@@H]2OCCCC[C@H](C)Oc3ccc(NC(=O)C4CCCCC4)cc3C(=O)N([C@H](C)CO)C[C@@H]2C)cc1 | inactive |
| CC(C)(C)c1ccc(-c2nc(-c3ccncc3)no2)cc1 | inactive |
| C[C@H](CO)N1C[C@H](C)[C@H](CN(C)C(=O)Nc2ccc(F)cc2)OCCCC[C@H](C)Oc2ccc(NC(=O)C3CCC3)cc2C1=O | inactive |
| C[C@H](CO)N1C[C@H](C)[C@H](CN(C)C(=O)Nc2ccc(C(F)(F)F)cc2)OCCCC[C@H](C)Oc2ccc(NC(=O)NC3CCCCC3)cc2C1=O | inactive |
| C[C@H](CO)N1C[C@H](C)[C@H](CN(C)C(=O)Nc2cccc3ccccc23)OCCCC[C@H](C)Oc2ccc(NC(=O)c3ccccc3)cc2C1=O | inactive |
| C[C@H]1CCCCO[C@@H](CN(C)C(=O)Nc2ccc3c(c2)OCO3)[C@@H](C)CN([C@@H](C)CO)C(=O)c2cc(NC(=O)NC3CCCCC3)ccc2O1 | inactive |
| C[C@H]1CCCCO[C@@H](CN(C)C(=O)Nc2ccccc2)[C@@H](C)CN([C@@H](C)CO)C(=O)c2cc(NC(=O)NC3CCCCC3)ccc2O1 | inactive |
| C[C@H](CO)N1C[C@H](C)[C@H](CN(C)C(=O)Nc2ccc3c(c2)OCO3)OCCCC[C@H](C)Oc2ccc(NC(=O)NC3CCCCC3)cc2C1=O | inactive |

The next lines start with the values.

| activity change, negative = inhibition | Compound |
| --- | --- |
| inactive | C[C@@H]1CCCCO[C@H](CN(C)C(=O)Nc2cccc3ccccc23)[C@@H](C)CN([C@@H](C)CO)C(=O)c2cc(NC(=O)C3CCCCC3)ccc2O1 |
| inactive | C[C@H](CO)N1C[C@H](C)[C@H](CN(C)C(=O)Nc2ccccc2F)OCCCC[C@H](C)Oc2ccc(NC(=O)C3CCCCC3)cc2C1=O |
| inactive | C[C@@H]1CN([C@@H](C)CO)C(=O)c2cc(NC(=O)C3CCCCC3)ccc2O[C@@H](C)CCCCO[C@H]1CN(C)C(=O)Nc1cccc2ccccc12 |
| inactive | C[C@H](CO)N1C[C@H](C)[C@H](CN(C)C(=O)Nc2cccc3ccccc23)OCCCC[C@H](C)Oc2ccc(NC(=O)NC3CCCCC3)cc2C1=O |
| inactive | C[C@@H]1CN([C@@H](C)CO)C(=O)c2cc(NC(=O)C3CCCCC3)ccc2O[C@@H](C)CCCCO[C@@H]1CN(C)C(=O)Nc1cccc2ccccc12 |
| inactive | C[C@@H]1CCCCO[C@@H](CN(C)C(=O)Nc2cccc3ccccc23)[C@@H](C)CN([C@H](C)CO)C(=O)c2cc(NC(=O)C3CCCCC3)ccc2O1 |
| inactive | C[C@H](CO)N1C[C@H](C)[C@H](CN(C)C(=O)Nc2ccc3ccccc3c2)OCCCC[C@H](C)Oc2ccc(NC(=O)C3CCCCC3)cc2C1=O |
| inactive | C[C@H]1CCCCO[C@@H](CN(C)C(=O)Nc2cccc3ccccc23)[C@@H](C)CN([C@@H](C)CO)C(=O)c2cc(NC(=O)C3CCCCC3)ccc2O1 |
| inactive | C[C@H](CO)N1C[C@H](C)[C@@H](CN(C)C(=O)Nc2cccc3ccccc23)OCCCC[C@H](C)Oc2ccc(NC(=O)C3CCCCC3)cc2C1=O |
| inactive | C[C@@H]1CN([C@H](C)CO)C(=O)c2cc(NC(=O)C3CCCCC3)ccc2O[C@@H](C)CCCCO[C@@H]1CN(C)C(=O)Nc1cccc2ccccc12 |
| inactive | C[C@@H]1CCCCO[C@H](CN(C)C(=O)Nc2cccc3ccccc23)[C@H](C)CN([C@H](C)CO)C(=O)c2cc(NC(=O)C3CCCCC3)ccc2O1 |
| inactive | C[C@H](CO)N1C[C@H](C)[C@H](CN(C)C(=O)Nc2cccc3ccccc23)OCCCC[C@H](C)Oc2ccc(NC(=O)C3CCCCC3)cc2C1=O |
| inactive | C[C@H]1CCCCO[C@H](CN(C)C(=O)Nc2cccc3ccccc23)[C@@H](C)CN([C@@H](C)CO)C(=O)c2cc(NC(=O)C3CCCCC3)ccc2O1 |
| inactive | C[C@H](CO)N1C[C@H](C)[C@H](CN(C)C(=O)Nc2ccccc2)OCCCC[C@H](C)Oc2ccc(NC(=O)C3CCCCC3)cc2C1=O |
| inactive | C[C@H](CO)N1C[C@H](C)[C@H](CN(C)C(=O)Nc2ccc(F)cc2)OCCCC[C@H](C)Oc2ccc(NC(=O)C3CCCCC3)cc2C1=O |
| inactive | C[C@@H]1CCCCO[C@H](CN(C)C(=O)Nc2cccc3ccccc23)[C@H](C)CN([C@@H](C)CO)C(=O)c2cc(NC(=O)C3CCCCC3)ccc2O1 |
| inactive | C[C@@H]1CN([C@H](C)CO)C(=O)c2cc(NC(=O)C3CCCCC3)ccc2O[C@@H](C)CCCCO[C@H]1CN(C)C(=O)Nc1cccc2ccccc12 |
